Literature values in patent US7279184B2, “Methods and compositions comprising Ilex” (HerbalScience, LLC, priority 2003, dated 2007).

half-life after ingestion: approximately 6 hours
SMILES: Cn1cnc2c1c(=O)[nH]c(=O)n2C [Theobromine, 3,7-dimethyl-xanthine]
